# Reference: US20190209506A1, “METHODS OF REDUCING OR PREVENTING OXIDATION OF LDL OR LIPID MEMBRANES IN A SUBJECT IN NEED THEREOF” (Amarin Pharmaceuticals Ireland Limited, priority 2018, published 2019)
# How the values were obtained:
# human sdLDL [1] = assay: Glucose-induced sdLDL oxidation, MDA/TBARS (Example 10); assay type: biochemical; settings: glucose 200 mg/dL
# Description: Vitamin E (α-tocopherol) purchased from Sigma-Aldrich was prepared in ethanol at 1.0 mM (ε=3.06×10^4M^−1 cm^−1 at 294 nm) prior to experimental use. Test compounds were further diluted in ethanol or aqueous buffer as needed. Phosphate Buffered Saline (PBS) purchased from Sigma-Aldrich was prepared in double distilled water at 10 mM (138 mM NaCl, 2.7 mM KCl, pH 7.4). Glucose prepared in PBS was added to test samples to achieve a final concentration of 11.0 mM (200 mg/dL).
# LDL and sdLDL were isolated from the plasma of healthy volunteers by iodixanol density gradient ultracentrifugation and adjusted to a final apolipoprotein concentration of 10 mg/mL. […] Sample aliquots were incubated at 100° C. for 30 minutes and then assayed for the formation of thiobarbituric acid-reactive substances (TBARS), having a molar absorptivity (ε) value of 1.56×10^5 M^−1 cm^−1 at 532 nm and were derived principally from the reaction of thiobarbituric acid with malondialdehyde (MDA). Lipid oxidation was measured by the colorimetric detection of malondialdehyde (MDA), a marker of oxidative stress.
# HUVECs = assay: NO release from HUVECs incubated with treated, oxidized sdLDL (Example 12); assay type: cell-based, human; settings: sdLDL treated at 10.0 μM
# Description: All samples, with the exception of non-oxidized sdLDL controls, were subjected to copper-induced oxidation for 1 hour. Human umbilical vein endothelial cells (HUVECs) were incubated with the various sdLDL samples, stimulated with calcium, and monitored for nitric oxide (NO) and peroxynitrite (ONOO^−) release using nanosensor technology.
# human sdLDL [2] = assay: Copper-induced sdLDL oxidation with fatty acids, TBARS/MDA (Example 14); assay type: biochemical; settings: 1.0 μM
# Description: Venous blood was collected from healthy volunteers into vacutainer tubes. Plasma was separated by centrifugation at 3000 g for 25 min at 4° C. and adjusted to a density of 1.020 g/mL with KBr. sdLDL was isolated from the plasma of healthy volunteers by iodixanol density gradient ultracentrifugation and adjusted to a final apolipoprotein concentration of 2 mg/mL. An aliquot of sdLDL (50 μL) was incubated with either 10 μL vehicle (ethanol) or 10 μL FA (EPA, ETE, AA, EA, DHA, DPA, ALA, LA or SA) treatment stock solution (100 μM) for 30 min at 37° C. Oxidation was initiated with addition of initiator CuSO4 (10.0 μM). At certain time points (0, 40, 60, and 120 minutes), […] were removed from each subfraction and combined with 1.0 mL thiobarbituric acid (0.5%), 10 μL trichloroacetic acid (10%), 10 μL butylated hydroxytoluene (BHT; 35 mM in ethanol), and 10 μL ethylenediaminetetraacetic acid (EDTA; 5 mM). Sample aliquots were incubated at 100° C. for 30 min and then assayed for the formation of thiobarbituric acid reactive substances (TBARS), which have a molar absorptivity (ε) value of 1.56×105 M^−1 cm^−1 at 532 nm and are largely derived from the reaction of thiobarbituric acid with MDA, a reactive aldehyde produced by sdLDL oxidation. Sample TBARS concentrations were determined spectrophotometrically by measuring sample absorbances against a standard curve derived from the hydrolysis of 1,1,3,3-tetramethoxypropane.
# [3] = Glucose-induced membrane lipid peroxidation (LOOH, CHOD-iodide assay) in DLPC/cholesterol vesicles (Examples 4, 5); assay type: biochemical; settings: for inhibition of the peroxidative effects of glucose (LOOH formation) / effect on LOOH formation / lipid peroxidation: 1:30 drug-to-phospholipid mole ratio; for effect on LOOH formation / lipid peroxidation: 72- and 96-hour time points
# Description: All test compounds were further diluted in ethanol or aqueous buffer as needed. Glucose was prepared in saline buffer (0.5 mM HEPES, 154 mM NaCl, pH 7.3) at 11.0 mM (200 mg/dL). CHOD-iodide color reagent (stock) was prepared, with slight modification, as described by from El-Saadani et al. (J. […] Samples were shell-dried under nitrogen gas and placed under vacuum for 1 h to remove residual solvent. […] Lipid suspensions were then vortexed for 3 min at ambient temperature to form MLVs. All MLV samples were subjected to time-dependent autoxidation by incubating at 37° C. in an uncovered, shaking water bath. This method allows lipid peroxidation to occur gradually without requiring the use of exogenous initiators. Small aliquots (5-100 μL) of each sample were removed, immediately following MLV preparation (0 hour) and after exposing samples to oxidative conditions for 72 or 96 hour, and combined with 1.0 mL of activated CHOD-iodide color reagent. Aliquot volume was reduced with each successive time point to ensure that spectrophotometric readings were within the optimal adsorption range. Test samples were covered and incubated in darkness at room temperature for at least 4 hr. Sample absorbances were then measured against a CHOD blank at 365 nm using a Beckman DU-640 spectrophotometer. The CHOD colorimetric assay is based on the oxidation of iodide (I^−) by lipid hydroperoxide (LOOH) to form triiodide the quantity of which is directly proportional to the amount of LOOH present in the lipid sample. The molar absorptivity (ε) of I3^− is 2.46×10^4 M^−1 cm^−1 at 365 nm. […] All MLV samples were subjected to time-dependent autoxidation by incubating at 37° C. in an uncovered, shaking water bath. This method allows lipid peroxidation to occur gradually without requiring the use of exogenous initiators. Small aliquots (5-100 μL) of each sample were removed, immediately following MLV preparation (0 hr) and after exposing samples to oxidative conditions for 72 or 96 hr, and combined with 1.0 mL of activated CHOD-iodide color reagent. Aliquot volume was reduced with each successive time point to ensure that spectrophotometric readings were within the optimal adsorption range. Test samples were covered and incubated in darkness at room temperature for at least 4 hr. Sample absorbances were then measured against a CHOD blank at 365 nm using a Beckman DU-640 spectrophotometer. […] The molar absorptivity (ε) of I3^− is 2.46×10^4 M^−1 cm^−1 at 365 nm.
# Human sdLDL particles = assay: Kinetic model of MDA formation in sdLDL oxidation (Example 15); assay type: biochemical
# Description: Human sdLDL particles were isolated and incubated in vitro with vehicle or with varying concentrations of EPA, DHA, or EPA and DHA. Once incubated, copper sulfate (CuSO4) was added to induce oxidation of the sdLDL particles. The sdLDL particles were then assayed for the detection of malondialdehyde (MDA), a known marker of oxidation.
# Various kinetic models were evaluated and eventually fit to the sdLDL oxidation data to describe the concentration of MDA in each sample. Both population parameter estimates and associated variabilities were generated for the formation of MDA (Kf) and degradation of MDA (Ke) rates.
# The final kinetic model is a 1 compartment model having a first order Ke and an additive first order Kf.
smiles,measurement,setting,value
"CC/C=C\C/C=C\C/C=C\C/C=C\C/C=C\CCCC(=O)O [EPA, cis-5,8,11,14,17-eicosapentaenoic acid]",inhibition of sdLDL oxidation compared to vehicle controls,human sdLDL [1]; 10.0 μM,94%
same,sdLDL oxidation (formation of MDA),human sdLDL [1]; 10.0 μM,0.2 ± 0.1 µM
same,IC50,human sdLDL [1],< 1000 nM
same,increase of NO release compared to non-oxidized sdLDL,HUVECs,23%
same,increase of NO release compared to oxidized LDL,HUVECs,53%
same,inhibition of lipoprotein oxidation versus vehicle,human sdLDL [2]; 40 minutes,70%
same,inhibition of oxidation compared to vehicle,human sdLDL [2]; 60 minutes,44%
same,MDA Equivalents (Mean ± SD),human sdLDL [2]; time point 0 min,0.30 ± 0.04 µM
same,MDA Equivalents (Mean ± SD),human sdLDL [2]; time point 40 min,3.14 ± 0.19 µM
same,MDA Equivalents (Mean ± SD),human sdLDL [2]; time point 60 min,6.42 ± 0.24 µM
same,MDA Equivalents (Mean ± SD),human sdLDL [2]; time point 120 min,12.46 ± 0.75 µM
same,antioxidant effect (LOOH formation),"[3]; 1.0 μM, glucose 200 mg/dL, 96 hours",separate and potent antioxidant effects
same,inhibition of the peroxidative effects of glucose (LOOH formation),"[3]; glucose 200 mg/dL, 72 hours",88%
same,inhibition of the peroxidative effects of glucose (LOOH formation),"[3]; glucose 200 mg/dL, 96 hours",86%
same,effect on LOOH formation / lipid peroxidation,[3]; glucose,significantly inhibited LOOH formation
same,effect on membrane LOOH formation,"[3]; EPA at 1.0 and 5.0 μM, glucose",inhibit membrane LOOH formation in a dose-dependent manner
same,"LOOH formation compared to vehicle, glucose only, glucose and EA, glucose and ETE","[3]; Example 5, model membranes treated with glucose",significantly less LOOH formation
same,reduction of Kf (formation rate of MDA),"Human sdLDL particles; 5 μM, after 8 hours",54%
same,reduction of Kf predicted by the kinetic model,"Human sdLDL particles; 10 μM alone, predicted",73%
"Cc1c(C)c2c(c(C)c1O)CC[C@@](C)(CCC[C@H](C)CCC[C@H](C)CCCC(C)C)O2 [vitamin E, α-tocopherol, reference compound]",effect on glucose-induced sdLDL oxidation,"human sdLDL [1]; 10 μM, 1 hr",failed to inhibit sdLDL oxidation
same,increase of sdLDL oxidation compared to glucose-treated controls,"human sdLDL [1]; 10 μM, 1 hr",63%
same,effect on LOOH formation / lipid peroxidation,[3]; glucose,no significant effect on lipid peroxidation
